# Results as given in paper PMC11145868, “Protein target similarity is positive predictor of in vitro antipathogenic activity: a drug repurposing strategy for Plasmodium falciparum” (Journal of Cheminformatics, 2024).
# Structures can show the parent of a compound that is named as a salt. Where two headings read alike, the source gives them in different places.
# Assays:
# P. falciparum Dd2-HLH [1] = experiment: microbe, parasite or virus in culture; assay type: cell-based, Plasmodium falciparum
# P. falciparum Dd2-HLH [2] = experiment: microbe, parasite or virus in culture; assay type: cell-based, Plasmodium falciparum; conditions: read-out: Blood stage 72h EC50
# [3] = system: P. berghei-luciferase sporozoites; experiment: microbe, parasite or virus in culture; assay type: cell-based, Plasmodium berghei; conditions: read-out: Liver stage 48h EC50
# [4] = Mammalian cell cytotoxicity assay, HEK293T (CellTiter-Glo, 72 h); conditions: human, HEK293T cells
# [5] = Plasmodium falciparum, DD2, 48 h, read-out: Blood stage 48h EC50
# [6] = Plasmodium falciparum, DD2, 72 h
# [7] = Plasmodium berghei, HepG2, liver-stage parasites, 48 hours in culture
# [8] = P. falciparum blood-stage parasites, 48 hours in culture, read-out: Blood stage 48h EC50
# [9] = P. falciparum blood-stage parasites, 72 hours in culture
# [10] = liver-stage parasites, 48 hours in culture
Molecule,EC50 (P. falciparum Dd2-HLH [1]; [5]),EC50 (P. falciparum Dd2-HLH [2]; [6]),"EC50 [3, 7]",CC50 at 72 h [4],EC50 (P. falciparum Dd2-HLH [1]; [8]),EC50 (P. falciparum Dd2-HLH [2]; [9]),"EC50 [3, 10]","EC50 (P. falciparum Dd2-HLH [1]; Plasmodium falciparum, DD2, Hec50, 48 h, read-out: Blood stage 48 h EC50)","EC50 ([3]; Plasmodium berghei, HepG2, 48 h)","EC50 (P. falciparum Dd2-HLH [1]; Plasmodium falciparum, DD2, read-out: EC50 (antiplasmodial, quoted in discussion from Supplementary Table 1))"
Cc1cc(Nc2nc(C(O)c3ccc(F)cc3)nc3ccccc23)n[nH]1 (stereo not drawn) [AC-430],1200 nM,924 nM,4210 nM,> 9950 nM,–,–,–,–,–,–
O=C(Nc1c[nH]nc1-c1nc2ccc(CN3CCOCC3)cc2[nH]1)NC1CC1 [AT-9283],129 nM,864 nM,569 nM,–,–,–,–,–,–,–
CN(C)Cc1c(C(=O)NCCOc2ccc(C(=O)NO)cc2)oc2ccccc12 [Abexinostat],51 nM,91 nM,1190 nM,376 nM,–,–,–,–,–,–
CCc1cc2c(cc1N1CCC(N3CCOCC3)CC1)C(C)(C)c1[nH]c3cc(C#N)ccc3c1C2=O [Alectinib Hydrochloride],907 nM,926 nM,152 nM,797 nM,–,–,–,–,–,–
COc1ccc(C[C@H]2NC[C@H](O)[C@H]2OC(C)=O)cc1 [Anisomycin],–,–,–,–,44 nM,61 nM,266 nM,–,–,–
COc1ccc(CCN2CCC(Nc3nc4ccccc4n3Cc3ccc(F)cc3)CC2)cc1 [Astemizole],–,–,–,> 9950 nM,–,–,–,–,–,–
CNC(=O)[C@H](Cc1ccccc1)NC(=O)[C@H](CC(C)C)[C@H](CSc1cccs1)C(=O)NO [Batimastat],95 nM,165 nM,> 10000 nM,> 9950 nM,–,–,–,–,–,–
Cc1c(-c2ccc(O)cc2)n(Cc2ccc(OCCN3CCCCCC3)cc2)c2ccc(O)cc12 [Bazedoxifene Acetate],192 nM,636 nM,5560 nM,3040 nM,–,–,–,–,–,–
O=C(/C=C/c1cccc(S(=O)(=O)Nc2ccccc2)c1)NO [Belinostat],90 nM,188 nM,1830 nM,1290 nM,–,–,–,–,–,–
CC[C@H](NC(=O)[C@H](C)NC)C(=O)N1C[C@@H](O)C[C@H]1Cc1c(-c2[nH]c3cc(F)ccc3c2C[C@@H]2C[C@H](O)CN2C(=O)[C@H](CC)NC(=O)[C@H](C)NC)[nH]c2cc(F)ccc12 [Birin/apant],190 nM,603 nM,> 10000 nM,> 9950 nM,–,–,–,–,–,–
CC(C)C[C@H](NC(=O)[C@H](Cc1ccccc1)NC(=O)c1cnccn1)B(O)O [Bortezomib],91 nM,82 nM,12 nM,25 nM,–,–,–,–,–,–
"COC(=O)[C@@]12OC[C@]34[C@H]([C@@H](O)[C@@H]1O)[C@@]1(C)CC(=O)C(O)=C(C)[C@@H]1C[C@H]3OC(=O)[C@H](OC(=O)/C=C(\C)C(C)C)[C@@H]24 [Bruceantin, reference compound]",–,7 nM,–,25 nM,–,–,–,5 nM,–,–
COc1ccc(C(=O)c2cn(C(C)C)c3ncnc(N)c23)cc1NC(=O)Nc1ccc(Cl)cc1Cl [CE-245677],619 nM,810 nM,3330 nM,> 9950 nM,–,–,–,–,–,–
C#Cc1cccc(Nc2ncnc3cc(OC)c(OCCCCCCC(=O)NO)cc23)c1 [CUDC-101],41 nM,52 nM,349 nM,408 nM,–,–,–,–,–,–
CO[C@@H]1[C@H](O)C[C@@H](O[C@@H]2C[C@H](Oc3cc4cc5c(c(O)c4c(O)c3C)C(=O)[C@@H](O[C@H]3C[C@@H](O[C@H]4C[C@@H](O[C@H]6C[C@](C)(O)[C@@H](OC(C)=O)[C@H](C)O6)[C@H](O)[C@@H](C)O4)[C@H](O)[C@@H](C)O3)[C@H]([C@H](OC)C(=O)[C@@H](O)[C@@H](C)O)C5)O[C@H](C)[C@@H]2OC(C)=O)O[C@@H]1C [Chromomycin A3],31 nM,48 nM,30 nM,–,–,–,–,–,–,–
COc1cc2ncnc(Nc3ccc(F)c(Cl)c3)c2cc1NC(=O)/C=C/CN1CCCCC1 [Dacomitinib],540 nM,953 nM,596 nM,2620 nM,–,–,–,–,–,–
CCN(CC)CCN(Cc1ccc(-c2ccc(C(F)(F)F)cc2)cc1)C(=O)Cn1c(SCc2ccc(F)cc2)nc(=O)c2c1CCC2 [Darapladib],515 nM,850 nM,2880 nM,1730 nM,–,–,–,–,–,–
CNCCCN1c2ccccc2CCc2ccccc21 [Desipramine],238 nM,622 nM,3330 nM,> 9950 nM,–,–,–,–,–,–
C/C1=C/C[C@@H](/C(C)=C/c2csc(C)n2)OC(=O)C[C@H](O)C(C)(C)C(=O)[C@H](C)[C@@H](O)[C@@H](C)CCC1 [Desoxyepothilone B],44 nM,76 nM,986 nM,–,–,–,–,–,–,–
CN(NC(=O)CC(=O)NN(C)C(=S)c1ccccc1)C(=S)c1ccccc1 [Elesclomol],196 nM,437 nM,> 10000 nM,169 nM,–,–,–,–,–,–
COc1cccc2c1C(=O)c1c(O)c3c(c(O)c1C2=O)C[C@@](O)(C(=O)CO)C[C@@H]3O[C@H]1C[C@H](N)[C@@H](O)[C@H](C)O1 [Epirubicin HCl],271 nM,366 nM,1480 nM,103 nM,–,–,–,–,–,–
COc1cc2c(Oc3ccc(NC(=O)C4(C(=O)Nc5ccc(F)cc5)CC4)cc3F)ccnc2cc1OCCCN1CCOCC1 [Foretinib],139 nM,859 nM,6050 nM,2370 nM,–,–,–,–,–,–

Molecule,EC50 (P. falciparum Dd2-HLH [1]; [5]),EC50 (P. falciparum Dd2-HLH [2]; [6]),"EC50 [3, 7]",CC50 at 72 h [4],EC50 (P. falciparum Dd2-HLH [1]; [8]),EC50 (P. falciparum Dd2-HLH [2]; [9]),"EC50 [3, 10]","EC50 (P. falciparum Dd2-HLH [1]; Plasmodium falciparum, DD2, Hec50, 48 h, read-out: Blood stage 48 h EC50)","EC50 ([3]; Plasmodium berghei, HepG2, 48 h)","EC50 (P. falciparum Dd2-HLH [1]; Plasmodium falciparum, DD2, read-out: EC50 (antiplasmodial, quoted in discussion from Supplementary Table 1))"
CN(C)c1ccc(C(=C2C=CC(=[N+](C)C)C=C2)c2ccc(N(C)C)cc2)cc1 [Gentian violet],104 nM,456 nM,214 nM,136 nM,–,–,–,–,–,–
CN1CCN(C2CCN(C(=O)Nc3cc(Oc4ccc(NC(=O)C5(C(=O)Nc6ccc(F)cc6)CC5)c(F)c4)ccn3)CC2)CC1 [Golvatinib],738 nM,1020 nM,2840 nM,4360 nM,–,–,–,–,–,–
CCOc1cc2ncc(C#N)c(Nc3ccc(OCc4cccc(F)c4)c(Cl)c3)c2cc1NC(=O)/C=C/CN(C)C [HKI-357],212 nM,619 nM,573 nM,1720 nM,–,–,–,–,–,–
CCc1cc2c(cc1CC)CC(NC[C@H](O)c1ccc(O)c3[nH]c(=O)ccc13)C2 [Indacaterol maleate],682 nM,951 nM,3110 nM,> 9950 nM,–,–,–,–,–,–
C[C@@H](Oc1ccc2[nH]nc(/C=C/c3cnn(CCO)c3)c2c1)c1c(Cl)cncc1Cl [LY-2874455],512 nM,733 nM,2360 nM,875 nM,–,–,–,–,–,–
CS(=O)(=O)CCNCc1ccc(-c2ccc3ncnc(Nc4ccc(OCc5cccc(F)c5)c(Cl)c4)c3c2)o1 [Lapatinib],300 nM,519 nM,4220 nM,> 9950 nM,–,–,–,–,–,–
O=C(NC1CCN(CCCCC2(C(=O)NCC(F)(F)F)c3ccccc3-c3ccccc32)CC1)c1ccccc1-c1ccc(C(F)(F)F)cc1 [Lomitapide],277 nM,820 nM,2250 nM,791 nM,–,–,–,–,–,–
CCNC(=O)c1noc(-c2cc(C(C)C)c(O)cc2O)c1-c1ccc(CN2CCOCC2)cc1 [Luminespib],38 nM,40 nM,29 nM,11 nM,–,–,–,–,–,–
C=CCn1c(=O)c2cnc(Nc3ccc(N4CCN(C)CC4)cc3)nc2n1-c1cccc(C(C)(C)O)n1 [MK-1775],595 nM,681 nM,6100 nM,310 nM,–,–,–,–,–,–
CN(C)c1ccc2nc3ccc(=[N+](C)C)cc-3sc2c1 [Methylthioninium Chloride],67 nM,118 nM,1050 nM,1770 nM,–,–,–,–,–,–
CO[C@@H]1[C@H](N(C)C(=O)c2ccccc2)C[C@H]2O[C@]1(C)n1c3ccccc3c3c4c(c5c6ccccc6n2c5c31)C(=O)NC4 [Midostaurin],86 nM,–,3600 nM,> 9950 nM,–,–,–,–,–,–
O=C1c2c(O)ccc(O)c2C(=O)c2c(NCCNCCO)ccc(NCCNCCO)c21 [Mitoxantrone],239 nM,357 nM,1720 nM,217 nM,–,–,–,–,–,–
CC(C)(C)NC[C@H](O)COc1ccccc1C1CCCC1 [Penbutolol],418 nM,980 nM,20000 nM,> 9950 nM,–,–,–,–,–,–
OC1(c2ccc(Cl)c(C(F)(F)F)c2)CCN(CCCC(c2ccc(F)cc2)c2ccc(F)cc2)CC1 [Penfluridol],218 nM,524 nM,3170 nM,1900 nM,–,–,–,–,–,–
Cc1ccc(C(=O)Nc2ccc(CN3CCN(C)CC3)c(C(F)(F)F)c2)cc1C#Cc1cnc2cccnn12 [Pon/atinib],294 nM,555 nM,241 nM,–,–,–,–,–,–,–
OC(CCN1CCCC1)(c1ccccc1)C1CCCCC1 (stereo not drawn) [Procyclidine hydrochloride],594 nM,437 nM,> 10000 nM,> 9950 nM,–,–,–,–,–,–
CNCCCC1c2ccccc2C=Cc2ccccc21 [Protriptyline hydrochloride],430 nM,959 nM,–,> 9950 nM,–,–,–,–,> 10000 nM,–
CCC1=C[C@@H]2CN(C1)Cc1c([nH]c3ccccc13)[C@@](C(=O)OC)(c1cc3c(cc1OC)N(C)[C@H]1[C@@](O)(C(=O)OC)[C@H](OC(C)=O)[C@]4(CC)C=CCN5CC[C@]31[C@@H]54)C2 [Vinorelbine],171 nM,809 nM,–,2980 nM,–,–,–,–,–,–
CC(C)c1cc(CNc2nc(Nc3cc(C4CC4)[nH]n3)cc(N3CCN(C)CC3)n2)on1 [XL-228],56 nM,621 nM,–,537 nM,–,–,–,–,–,–
"COC(=O)C[C@](O)(CCC(C)(C)O)C(=O)O[C@@H]1C(OC)=C[C@]23CCCN2CCc2cc4c(cc2[C@H]13)OCO4 [harringtonine, reference compound]",24 nM,43 nM,29 nM,–,–,–,–,–,–,6.1 nM
Oligomycin A,–,–,–,–,57 nM,168 nM,578 nM,–,–,–
